In patent publication US20050113450A1, “Antibacterial agents” (priority 2002, published 2005):
In brackets after ≈: the same amount, converted by molar mass.

Tested on: SA 9218
Assay: MIC by standard agar dilution method
Type: cell-based
Settings: Mueller Hinton agar, 10^4 to 10^5 cells per spot, incubated overnight at 35° C., lowest concentration that inhibits visible growth
In short: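 MIC read after overnight 35 °C incubation as lowest drug level preventing visible growth. Inoculum of roughly 10^4–10^5 cells per spot (0.5 McFarland, 1:20 in TSB) applied to Mueller Hinton agar containing serial 2-fold compound dilutions.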

Row | SMILES | MIC | SA 9218 MIC
1 | CC1CCN(S(=O)(=O)c2cccc(C(=O)Nc3ccc(C#N)cc3C(=O)O)c2)CC1 [PHA-571273] | 8 µg/mL (≈ 18.7 µM) | 
2 | O=C1CCC(COc2cccc(C(=O)Nc3ccc(Br)cc3C(=O)O)c2)N1 (stereo not shown) [PHA-571280] |  | >128 µg/mL
3 | O=C1CCC(COc2cccc(C(=O)Nc3ccc(Br)cc3C(=O)O)c2)N1 (stereo not shown) [PHA-571281] | 128 µg/mL (≈ 295 µM) | 
4 | COc1cc(COc2cccc(C(=O)Nc3ccc(Br)cc3C(=O)O)c2)ccc1[N+](=O)[O-] [PHA-571282] | 16 µg/mL (≈ 31.9 µM) | 
5 | COC(=O)c1ccc(COc2cccc(C(=O)Nc3ccc(Br)cc3C(=O)O)c2)cc1 [PHA-571283] | 16 µg/mL (≈ 33 µM) | 
6 | O=C(Nc1ccc(Br)cc1C(=O)O)c1cccc(OC2CCOC2=O)c1 (stereo not shown) [PHA-571285] | 64 µg/mL (≈ 152 µM) | 
7 | CC(C)(C)OC(=O)NC(COc1cccc(C(=O)Nc2ccc(Br)cc2C(=O)O)c1)c1ccccc1 (stereo not shown) [PHA-571287] | 2 µg/mL (≈ 3.6 µM) | 
8 | CCOC(=O)C1CCC(Oc2cccc(C(=O)Nc3ccc(Br)cc3C(=O)O)c2)CC1 (stereo not shown) [PHA-571289] | 32 µg/mL (≈ 65.3 µM) | 
9 | C=CCC(CC=C)Oc1ccc(C(=O)Nc2ccc(Br)cc2C(=O)O)cc1 [PHA-571292] | 32 µg/mL (≈ 74.4 µM) | 
10 | O=C(Nc1ccc(Cl)cc1C(=O)O)c1cccc(S(=O)(=O)N2CCOCC2)c1 [PHA-571395] | 4 µg/mL (≈ 9.41 µM) | 
11 | O=C(Nc1ccc(Br)cc1C(=O)O)c1cccc(S(=O)(=O)N2CCOCC2)c1 [PHA-571396] | 4 µg/mL (≈ 8.52 µM) | 
12 | O=C(Nc1ccc([N+](=O)[O-])cc1C(=O)O)c1cccc(S(=O)(=O)N2CCOCC2)c1 [PHA-571397] | 4 µg/mL (≈ 9.19 µM) | 
13 | O=C(Nc1ccc(I)cc1C(=O)O)c1cccc(S(=O)(=O)N2CCOCC2)c1 [PHA-571458] | 4 µg/mL (≈ 7.75 µM) | 
14 | N#Cc1ccc(NC(=O)c2cccc(Nc3ccccc3)c2)c(C(=O)O)c1 [PHA-610938, 2-[(3-Anilinobenzoyl)amino]-5-cyanobenzoic acid] | 1 µg/mL (≈ 2.8 µM) | 
15 | O=C(Nc1ccc(-c2ccc(C(F)(F)F)cc2)cc1C(=O)O)c1cccc(S(=O)(=O)N2CCOCC2)c1 [PHA-610940] | > 128 µg/mL | 
16 | COc1ccc(-c2ccc(NC(=O)c3cccc(S(=O)(=O)N4CCOCC4)c3)c(C(=O)O)c2)cc1 [PHA-610941] | > 128 µg/mL | 
17 | O=C(Nc1ccc(-c2ccccc2)cc1C(=O)O)c1cccc(S(=O)(=O)N2CCOCC2)c1 [PHA-610942] | > 128 µg/mL | 
18 | CN(c1ccc(Cl)cc1)S(=O)(=O)c1cccc(C(=O)Nc2ccc(Cl)cc2C(=O)O)c1 [PHA-615551] | 1 µg/mL (≈ 2.09 µM) | 
19 | N#Cc1ccc(NC(=O)c2cccc(S(=O)(=O)n3cnc4ccccc43)c2)c(C(=O)O)c1 [PHA-630330] | 0.5 µg/mL (≈ 1.12 µM) | 
20 | O=C(Nc1ccc(Br)cc1C(=O)O)c1cccc(S(=O)(=O)n2ccc3cccnc32)c1 [PHA-630331] | 2 µg/mL (≈ 4 µM) | 
21 | N#Cc1ccc(NC(=O)c2cccc(SCc3ccccc3)c2)c(C(=O)O)c1 [PHA-630368] | 0.5 µg/mL (≈ 1.29 µM) | 
22 | N#Cc1ccc(NC(=O)c2cccc(S(=O)(=O)C3CCCC3)c2)c(C(=O)O)c1 [PHA-630426] | > 128 µg/mL | 
23 | N#Cc1ccc(NC(=O)c2cccc([S+]([O-])C3CCCC3)c2)c(C(=O)O)c1 (stereo not shown) [PHA-630427] | 4 µg/mL (≈ 10.5 µM) | 
24 | CC(C)(C)N1C(=O)c2ccc(C(=O)Nc3ccc(C#N)cc3C(=O)O)cc2C1=O [PHA-630726] | 4 µg/mL (≈ 10.2 µM) | 

Row | SMILES | MIC | SA 9218 MIC
25 | N#Cc1ccc(NC(=O)c2cccc(CS(=O)(=O)N3CCCC3)c2)c(C(=O)O)c1 [PHA-630852, 5-cyano-2-({3-[(1-pyrrolidinylsulfonyl)methyl]benzoyl}amino)benzoic acid] | 4 µg/mL (≈ 9.67 µM) | 
26 | N#Cc1ccc(NC(=O)c2cc(Br)cc(S(=O)(=O)N3CCc4ccccc43)c2)c(C(=O)O)c1 [PHA-630965] | 0.25 µg/mL (≈ 0.475 µM) | 
27 | CN(c1ccc(Cl)cc1)S(=O)(=O)c1cc(Br)cc(C(=O)Nc2ccc(C#N)cc2C(=O)O)c1 [PHA-630966] | 0.25 µg/mL (≈ 0.456 µM) | 
28 | CC(C)(C)N1C(=O)c2ccc(C(=O)Nc3ccc(Br)cc3C(=O)O)cc2C1=O [PHA-630989] | 4 µg/mL (≈ 8.98 µM) | 
29 | CN(c1ccc(Cl)cc1)S(=O)(=O)c1cc(Br)cc(C(=O)Nc2ccc(Br)cc2C(=O)O)c1 [PHA-631082] | 0.25 µg/mL (≈ 0.415 µM) | 
30 | N#Cc1ccc(NC(=O)c2cccc(S(=O)(=O)NC3CCc4ccccc43)c2)c(C(=O)O)c1 (stereo not shown) [PHA-656807] | 64 µg/mL (≈ 139 µM) | 
31 | N#Cc1ccc(NC(=O)c2cccc(S(=O)(=O)N(CCO)Cc3ccccc3)c2)c(C(=O)O)c1 [PHA-656808] | 64 µg/mL (≈ 133 µM) | 
32 | CN(CC(O)c1ccccc1)S(=O)(=O)c1ccc(C(=O)Nc2ccc(C#N)cc2C(=O)O)cc1 (stereo not shown) [PHA-656809] | 64 µg/mL (≈ 133 µM) | 
33 | N#Cc1ccc(NC(=O)c2cccc(S(=O)(=O)N3CCN(c4ccc([N+](=O)[O-])cc4)CC3)c2)c(C(=O)O)c1 [PHA-656810] | 2 µg/mL (≈ 3.73 µM) | 
34 | CC(C)CN(CC(C)C)S(=O)(=O)c1ccc(C(=O)Nc2ccc(C#N)cc2C(=O)O)cc1 [PHA-656811] | 32 µg/mL (≈ 69.9 µM) | 
35 | O=C(Nc1ccc(-c2ccc(Cl)cc2)cc1C(=O)O)c1cccc(S(=O)(=O)N2CCOCC2)c1 [PHA-656820] | > 128 µg/mL | 
36 | CCCCN(CCO)S(=O)(=O)c1cccc(C(=O)Nc2ccc(C#N)cc2C(=O)O)c1 [PHA-656859] | 16 µg/mL (≈ 35.9 µM) | 
37 | N#Cc1ccc(NC(=O)c2cccc(S(=O)(=O)Nc3ccc4c(c3)CCC4)c2)c(C(=O)O)c1 [PHA-656860] | 8 µg/mL (≈ 17.3 µM) | 
38 | CN(CCC(O)c1ccccc1)S(=O)(=O)c1ccc(C(=O)Nc2ccc(C#N)cc2C(=O)O)cc1 (stereo not shown) [PHA-656861] | 32 µg/mL (≈ 64.8 µM) | 
39 | N#Cc1ccc(NC(=O)c2ccc(S(=O)(=O)N(CCO)Cc3ccccc3)cc2)c(C(=O)O)c1 [PHA-656862] | 32 µg/mL (≈ 66.7 µM) | 
40 | N#Cc1ccc(NC(=O)c2cccc(S(=O)(=O)N3CCCC3CO)c2)c(C(=O)O)c1 (stereo not shown) [PHA-656863] | 8 µg/mL (≈ 18.6 µM) | 
41 | N#Cc1ccc(NC(=O)c2ccc(S(=O)(=O)NC3CCc4ccccc43)cc2)c(C(=O)O)c1 (stereo not shown) [PHA-656866] | > 128 µg/mL | 
42 | CCCCN(CCO)S(=O)(=O)c1ccc(C(=O)Nc2ccc(C#N)cc2C(=O)O)cc1 [PHA-656867] | 64 µg/mL (≈ 144 µM) | 
43 | N#Cc1ccc(NC(=O)c2ccc(S(=O)(=O)N3CCCC3CO)cc2)c(C(=O)O)c1 (stereo not shown) [PHA-656868] | > 128 µg/mL | 
44 | C=CCN(C1CCCC1)S(=O)(=O)c1cccc(C(=O)Nc2ccc(C#N)cc2C(=O)O)c1 [PHA-656870] | 8 µg/mL (≈ 17.6 µM) | 
45 | CC1CCCN1S(=O)(=O)c1ccc(C(=O)Nc2ccc(C#N)cc2C(=O)O)cc1 (stereo not shown) [PHA-656871] | 128 µg/mL (≈ 310 µM) | 
46 | CN(CCc1ccccn1)S(=O)(=O)c1cccc(C(=O)Nc2ccc(C#N)cc2C(=O)O)c1 [PHA-656872] | > 128 µg/mL | 
47 | O=C(Nc1ccc(Cl)cc1C(=O)O)c1cccc(C(=O)c2ccc3ccccc3n2)c1 [PHA-656880] | 16 µg/mL (≈ 37.1 µM) | 
48 | O=C(COc1ccccc1)c1cccc(C(=O)Nc2ccc(Cl)cc2C(=O)O)c1 [PHA-656882] | 16 µg/mL (≈ 39 µM) | 

Row | SMILES | MIC | SA 9218 MIC
49 | COC(=O)c1cccc(C(=O)c2ccc(C(=O)Nc3ccc(Cl)cc3C(=O)O)cc2)c1 [PHA-656883] | 16 µg/mL (≈ 36.5 µM) | 
50 | CC(C)C(=O)c1cccc(C(=O)Nc2ccc(Cl)cc2C(=O)O)c1 [PHA-656884] | 16 µg/mL (≈ 46.3 µM) | 
51 | COc1ccccc1C(=O)c1cccc(C(=O)Nc2ccc(Cl)cc2C(=O)O)c1 [PHA-656885] | 16 µg/mL (≈ 39 µM) | 
52 | COC(=O)c1cccc(C(=O)c2cccc(C(=O)Nc3ccc(Cl)cc3C(=O)O)c2)c1 [PHA-656886] | 16 µg/mL (≈ 36.5 µM) | 
53 | O=C(Nc1ccc(Cl)cc1C(=O)O)c1cccc(C(=O)c2cccs2)c1 [PHA-656887] | 8 µg/mL (≈ 20.7 µM) | 
54 | O=C(Nc1ccc(Cl)cc1C(=O)O)c1cccc(C(=O)C2CCC2)c1 [PHA-656888] | 16 µg/mL (≈ 44.7 µM) | 
55 | CC(C)(C)CC(=O)c1cccc(C(=O)Nc2ccc(Cl)cc2C(=O)O)c1 [PHA-656889] | 16 µg/mL (≈ 42.8 µM) | 
56 | O=C(Nc1ccc(Cl)cc1C(=O)O)c1cccc(C(=O)C2CC2)c1 [PHA-656890] | 16 µg/mL (≈ 46.5 µM) | 
57 | O=C(CCC1CCCC1)c1cccc(C(=O)Nc2ccc(Cl)cc2C(=O)O)c1 [PHA-656891] | 16 µg/mL (≈ 40 µM) | 
58 | O=C(Nc1ccc(Cl)cc1C(=O)O)c1cccc(C(=O)c2ccc(F)c(F)c2)c1 [PHA-656892] | 8 µg/mL (≈ 19.2 µM) | 
59 | O=C(Nc1ccc(Cl)cc1C(=O)O)c1cccc(C(=O)c2cc(F)cc(F)c2)c1 [PHA-656893] | 8 µg/mL (≈ 19.2 µM) | 
60 | Cc1cccc(C(=O)c2cccc(C(=O)Nc3ccc(Cl)cc3C(=O)O)c2)c1 [PHA-656894] | 16 µg/mL (≈ 40.6 µM) | 
61 | O=C(Nc1ccc(Cl)cc1C(=O)O)c1cc(Br)cc(S(=O)(=O)N2CCOCC2)c1 [PHA-662250] | 1 µg/mL (≈ 1.99 µM) | 
62 | N#Cc1ccc(NC(=O)c2cccc(C(=O)N3CCOCC3)c2)c(C(=O)O)c1 [PHA-662412] | 64 µg/mL (≈ 169 µM) | 
63 | N#Cc1ccc(NC(=S)c2cccc(S(=O)(=O)N3CCOCC3)c2)c(C(=O)O)c1 [PHA-662430] | 1 µg/mL (≈ 2.32 µM) | 
64 | N#Cc1ccc(NC(=S)c2cccc(S(=O)(=O)N3CCCC3)c2)c(C(=O)O)c1 [PHA-662431] | 1 µg/mL (≈ 2.41 µM) | 
65 | N#Cc1ccc(NC(=O)c2cccc(S(=O)(=O)N3CCOCC3)c2)c(C(=O)O)c1 [PHA-662951] |  | 32 µg/mL
66 | Cc1cc(C(=O)Nc2ccc(Cl)cc2C(=O)O)cc(S(=O)(=O)N2CCc3ccccc32)c1 [PHA-664658] | 4 µg/mL (≈ 8.49 µM) | 
67 | O=Cc1ccc(NC(=O)c2cccc(S(=O)(=O)N3CCOCC3)c2)c(C(=O)O)c1 [PHA-666124] | 32 µg/mL (≈ 76.5 µM) | 
68 | CN(c1ccccc1N)S(=O)(=O)c1cccc(C(=O)Nc2ccc(C#N)cc2C(=O)O)c1 [PHA-670083] | 0.5 µg/mL (≈ 1.11 µM) | 
69 | O=C(Nc1ccc(/C=N/O)cc1C(=O)O)c1cccc(S(=O)(=O)N2CCOCC2)c1 [PHA-679756] | > 128 µg/mL | 
70 | CO/N=C/c1ccc(NC(=O)c2cccc(S(=O)(=O)N3CCOCC3)c2)c(C(=O)O)c1 [PHA-679759] | > 128 µg/mL | 
